Measurements published in patent publication US9669001B2, “Antimicrobial composition” (CONVATEC TECHNOLOGIES INC., priority 2008, dated 2017).

What was measured:
Format in all cases: cell-based
[1] = system: P. aeruginosa biofilms; assay: Minimum Biofilm Eradication Concentration (MBEC) method with cyan LED illumination; conditions: combinations in sterile water, cyan LED lamp; FIG. 4
[2] = system: P. aeruginosa biofilms; assay: Photo-catalytic therapy, in vitro wound biofilm model (pork belly)
[3] = system: S. aureus biofilms; assay: as above; conditions: higher doses of RB and light, post-treatment rinse; FIG. 2

| Compound | effect on the action of RB and light against biofilms [1] | biofilm removal (reduction in P. aeruginosa) ([2]; 25 μM RB, PCT with post-treatment rinse step, FIG. 1) | P. aeruginosa biofilm bacteria cell killing on raising dose ([2]; RB and light dose increased five-fold, no post-treatment rinse, FIG. 1 bars 2 & 4) | biofilm cell reductions [3] |
| --- | --- | --- | --- | --- |
| dialkyl dimethyl ammonium chloride [DDAC] | potentiates the action of RB and light in a concentration-dependent manner | – | – | – |
| O=C1OC2(c3cc(I)c(O)c(I)c3Oc3c2cc(I)c(O)c3I)c2c(Cl)c(Cl)c(Cl)c(Cl)c21 [Rose Bengal, 4,5,6,7-Tetrachloro-3′,6′-dihydroxy-2′,4′,5′,7′-tetriodo-3H-spiro[isobenzofuran-1,9′-xanthen]-3-one] | – | 2 log | significantly increased reduction | over 3 log10 |
| O=C(O)CN(CCN(CC(=O)O)CC(=O)O)CC(=O)O [EDTA, ethylene diamine tetraacetic acid] | potentiates the action of RB and light in a concentration-dependent manner | – | – | – |
